Experimental findings from patent US4356183A, “Antihypertensive 4-thiazolidinecarboxylic acids (pyridyl derivatives)” (Santen Pharmaceutical Co., Ltd., priority 1978, dated 1982) are described below.

The test system of data set [1] is pressor response to angiotensin I. The data set can be described thus: Inhibition of pressor response to angiotensin I in rats after oral administration. Type of data set: in vivo, rat (male Wistar). The conditions noted are these: angiotensin I 300 ng/kg i.v.; for Inhibition (%) of pressor response to angiotensin I, 5 min / Inhibition (%) of pressor response to angiotensin I, 15 min / Inhibition (%) of pressor response to angiotensin I, 25 min / Inhibition (%) of pressor response to angiotensin I, 35 min / Inhibition (%) of pressor response to angiotensin I, 45 min / Inhibition (%) of pressor response to angiotensin I, 55 min / Inhibition (%) of pressor response to angiotensin I, 65 min / Inhibition (%) of pressor response to angiotensin I, 75 min / Inhibition (%) of pressor response to angiotensin I, 85 min: dose: 3, 45, 49 1.8 mg/kg, 4, 46 1.3, 50 1.4, 76 2.0, 77 1.5; for Inhibition (%) of pressor response to angiotensin I, 95 min: dose: 45, 49 1.8 mg/kg, 4, 46 1.3, 50 1.4, 76 2.0, 77 1.5. How it is done:
Male Wistar strain rats weighing about 200-300 g were used.
Under ether anesthesia, polyethylene cannulae are inserted into carotid arthery and jugular vein. The cannula to carotid artery is connected to an electric transducer, while the cannula to jugular vein is connected to an apparatus for continuous infusion. After the complete recovery from anesthesia, angiotensin I is infused intravenously in a dose of 300 ng/kg by the apparatus for continuous infusion, and the pressor response is recorded by polygraph (Nihon Koden, RM-150).
The compounds of this invention suspended in 0.5% tragacanth solution are administered orally in a dose of 0.3 ml per 100 g of body weight, and the pressor response to angiotensin I infused intravenously is measured with time.
The inhibitory activity of the compounds against angiotensin I-converting enzyme is expressed as the percent inhibition of pressor response to angiotensin I.

For data set [2], the system named is contractile response of isolated guinea pig ileum to angiotensin I. In words: Inhibition of contractile response of isolated guinea pig ileum to angiotensin I. Type of data set: cell-based. The conditions noted are these: Cavia porcellus, angiotensin I 0.1 μg/ml; compound added 5 min before; 30° C.; read-out: Angiotensin I IC50 (50% inhibition of angiotensin I activity inducing the contraction of guinea pig ileum). An excerpt: As the method of measurement of angiotensin I-converting enzyme activity, bioassay for the contractile response of isolated smooth muscle or the pressor response of normal animals and biochemical assay for the enzyme isolated from lung or other organs of animals are known. The former is found more advantageous than the latter for the examination of the convertion of angiotensin I to angiotensin II in vivo.
In the present study, therefore, we adopted the bioassay for contractile response of isolated guinea pig ileum to angiotensin I.
(§1) Measurement of inhibitory activity of angiotensin I-converting enzyme
(§2) Isolated guinea pig ileum was suspended in the organ bath containing 20 ml of Tyrode's solution of 30° C. gassed with 95% O2 +5% CO2. The contraction induced by the addition of angiotensin I (0.1 μg/ml) at intervals of 10 minutes was recorded on a recticorder (Nihon Koden) for 90 seconds using FD pick up (ST-1T-H, Nihon Koden).
(§3) The test compounds were added to the bath 5 minutes before the addition of angiotensin I.
The inhibitory activity of angiotensin I-converting enzyme was calculated by the following formula. [formula] A: contractile intensity of angiotensin I before addition of the compound B: contractile intensity of angiotensin I after addition of the compound

For data set [3], the system named is contractile response to bradykinin (isolated guinea pig ileum). In words: Augmentation of contractile response of isolated guinea pig ileum to bradykinin. Type of data set: cell-based. The conditions noted are these: Cavia porcellus, bradykinin 0.005 μg/ml; compound added 5 min before; 30° C.; read-out: Bradykinin AC50 (50% augmentation of bradykinin activity inducing the contraction of guinea pig ileum). The method, then:
as §2, §3
From the fact that kininase II, which destroys bradykinin having contractive action on isolated guinea pig ileum, is thought to be identical with angiotensin I-converting enzyme, augmentation of the contractile response to bradykinin by test compounds was examined by using bradykinin (0.005 μg/ml) in place of angiotensin I according to the above mentioned method.

The target of data set [4] is T1, angiotensin I-converting enzyme (Oryctolagus cuniculus, UniProt P12822).
T1 construct: angiotensin I-converting enzyme extracted from rabbit lung; from tissue; host or cells: rabbit lung
T1 sequence (P12822 34-1310): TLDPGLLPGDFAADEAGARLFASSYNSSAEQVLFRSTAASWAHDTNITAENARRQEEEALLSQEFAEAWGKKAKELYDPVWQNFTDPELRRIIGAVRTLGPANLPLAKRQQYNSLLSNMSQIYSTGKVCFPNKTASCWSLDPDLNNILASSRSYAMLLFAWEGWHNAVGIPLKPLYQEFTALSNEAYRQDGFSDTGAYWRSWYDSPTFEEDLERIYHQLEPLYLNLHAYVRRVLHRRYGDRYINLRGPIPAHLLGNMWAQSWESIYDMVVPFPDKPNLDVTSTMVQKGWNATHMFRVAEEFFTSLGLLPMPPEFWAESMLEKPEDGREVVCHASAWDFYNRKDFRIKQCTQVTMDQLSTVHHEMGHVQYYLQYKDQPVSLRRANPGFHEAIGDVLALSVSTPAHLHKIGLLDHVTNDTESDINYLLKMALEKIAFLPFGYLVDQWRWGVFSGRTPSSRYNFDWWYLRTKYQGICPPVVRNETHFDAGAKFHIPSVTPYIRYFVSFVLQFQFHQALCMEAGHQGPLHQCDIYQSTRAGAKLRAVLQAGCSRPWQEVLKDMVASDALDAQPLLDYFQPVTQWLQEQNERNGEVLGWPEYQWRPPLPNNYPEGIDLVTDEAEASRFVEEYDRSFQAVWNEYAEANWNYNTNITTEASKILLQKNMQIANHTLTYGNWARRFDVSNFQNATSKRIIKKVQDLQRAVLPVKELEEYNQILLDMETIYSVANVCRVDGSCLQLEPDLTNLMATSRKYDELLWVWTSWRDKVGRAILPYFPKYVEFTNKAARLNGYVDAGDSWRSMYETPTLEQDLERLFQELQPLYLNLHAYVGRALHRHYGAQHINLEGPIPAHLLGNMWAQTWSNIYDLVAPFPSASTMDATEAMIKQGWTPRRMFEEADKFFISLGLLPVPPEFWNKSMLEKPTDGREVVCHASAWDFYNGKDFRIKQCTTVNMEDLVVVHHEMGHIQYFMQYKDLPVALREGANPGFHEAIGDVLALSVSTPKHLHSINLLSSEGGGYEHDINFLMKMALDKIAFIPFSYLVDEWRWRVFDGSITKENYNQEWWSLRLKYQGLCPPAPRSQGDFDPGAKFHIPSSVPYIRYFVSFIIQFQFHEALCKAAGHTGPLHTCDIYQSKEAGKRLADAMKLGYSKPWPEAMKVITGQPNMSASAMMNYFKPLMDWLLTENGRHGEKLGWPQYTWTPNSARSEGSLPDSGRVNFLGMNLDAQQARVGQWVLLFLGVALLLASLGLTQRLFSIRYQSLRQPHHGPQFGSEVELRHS
In words: Inhibition of angiotensin I-converting enzyme by spectrophotometry (HHL substrate). Type of data set: biochemical. The conditions noted are these: enzyme from rabbit lung; 5 mM HHL; pH 8.3; 37° C., 30 min. The method, then: That is, the absorbance of hippuric acid was measured, which is liberated by incubating hippuryl-L-histidyl-L-leucine (HHL) as substrate in the presence of angiotensin I-converting enzyme extracted from rabbit lung.
as §1
The reaction mixture is as follows:
100 mM phosphate buffer (pH 8.3)
10^-3 ~10^-9 M enzyme inhibitor
0.25 ml of the above mixture was incubated at 37° C. for 30 minutes and the reaction was stopped by adding 0.25 ml of 1 N hydrochloric acid. To this solution, 1.5 ml of ethyl acetate was added in order to extract hippuric acid. 1.0 ml of ethyl acetate layer was collected and evaporated to dryness, and the residue obtained was dissolved in 1.0 ml of water.
The inhibitory activity of angiotensin I-converting enzyme was calculated by the following formula: [formula]

A further data set in a line: Acute toxicity test. The conditions noted are these: rat, in vivo. The method, then: The male ddy-SLC strain […] (4 weeks of age, weighing 19-21 g) were placed in a breeding room of constant temperature and humidity (23°±1° C., 55±5%) and fed freely pellet diet (CE-2, Clea Japan Inc.) and water ad. libitum for a week. The rats showing the normal growth were selected for the experiment.
Test compounds are suspended in 0.5% tragacanth solution (p.o.) or dissolved in distilled water (i.v., i.p.), and administered in a dose of 0.5 ml/20 g body weight.

Where two headings read alike, the source gives them in different places. A value given as a limit tells only on which side of the number the result lay.

For orientation: IC50 means the concentration that gives 50% inhibition. A word on the AC50: it is the midpoint of the concentration-response curve, whichever way the signal moves. Consider `C[C@H](CS)C(=O)N1C(C2CCCCC2)SC[C@H]1C(=O)O` (some centres unmarked) [Compound 4], for which, in data set [1], the “Inhibition (%) of pressor response to angiotensin I, 5 min” value was determined as 46.7%; the “Inhibition (%) of pressor response to angiotensin I, 15 min” value stood at 46.5%; the “Inhibition (%) of pressor response to angiotensin I, 25 min” value was found to be 37.2%; the “Inhibition (%) of pressor response to angiotensin I, 35 min” value came to 32.2%. Moreover, in data set [1], the “Inhibition (%) of pressor response to angiotensin I, 45 min” value is on record as 28.8%; the “Inhibition (%) of pressor response to angiotensin I, 55 min” value is 27.5%; the “Inhibition (%) of pressor response to angiotensin I, 65 min” value was determined as 27.5%; the “Inhibition (%) of pressor response to angiotensin I, 75 min” value is 13.8%. In data set [1], the “Inhibition (%) of pressor response to angiotensin I, 85 min” value was found to be 14.5% and the “Inhibition (%) of pressor response to angiotensin I, 95 min” value was found to be 10.3%. The IC50 in data set [2] was 50 nM. For the same molecule, the AC50 in data set [3] was determined as 2 nM. Also, the IC50 in data set [4] is 120 nM.

As to `C[C@H](CS)C(=O)N1C(c2ccccc2)SC[C@H]1C(=O)O` (some centres unmarked) [Compound 18], the IC50 in data set [2] is 190 nM; in data set [4], 60 nM. The AC50 in data set [3] is 3.1 nM. In addition, in the data set “Acute toxicity test” (ip, dissolved in distilled water, pH 7, read-out: LD i.p.), the LD50 is over 1000 mg/kg.

For `O=C(O)[C@@H]1CSC(c2ccccc2O)N1C(=O)CCS` (stereo partly drawn) [Compound 46, (4R)-2-(2-Hydroxyphenyl)-3-(3-mercaptopropanoyl)-4-thiazolidinecarboxylic acid], in data set [1], the “Inhibition (%) of pressor response to angiotensin I, 5 min” value amounted to 53.3%; the “Inhibition (%) of pressor response to angiotensin I, 15 min” value came to 62.9%; the “Inhibition (%) of pressor response to angiotensin I, 25 min” value was 64.7%; the “Inhibition (%) of pressor response to angiotensin I, 35 min” value worked out at 63.7%. Also, in data set [1], the “Inhibition (%) of pressor response to angiotensin I, 45 min” value is recorded as 54.0%; the “Inhibition (%) of pressor response to angiotensin I, 55 min” value was determined as 49.3%; the “Inhibition (%) of pressor response to angiotensin I, 65 min” value was found to be 47.7%; the “Inhibition (%) of pressor response to angiotensin I, 75 min” value came to 38.8%. Moreover, in data set [1], the “Inhibition (%) of pressor response to angiotensin I, 85 min” value was 34.0% and the “Inhibition (%) of pressor response to angiotensin I, 95 min” value amounted to 30.0%. Besides, the “Inhibition (%) of pressor response to angiotensin I, 105 min” value in data set [1] (105 min, dose: 45, 49 1.8 mg/kg, 46 1.3, 50 1.4, 76 2.0, 77 1.5) was 30.0%. Also, the “Inhibition (%) of pressor response to angiotensin I, 115 min” value in data set [1] (115 min, dose: 45, 49 1.8 mg/kg, 46 1.3, 50 1.4, 76 2.0, 77 1.5) is given as 31.0%. Moreover, the IC50 in data set [2] worked out at 19 nM. Further, the AC50 in data set [3] stood at 0.3 nM. For the same molecule, the LD50 in “Acute toxicity test” (po, suspended in 0.5% tragacanth solution, read-out: LD50 p.o.) was over 10000 mg/kg.

On to `C[C@H](CS)C(=O)N1C(c2ccco2)SC[C@H]1C(=O)O` (some centres unmarked) [Compound 85], for which the IC50 in data set [2] was found to be 240 nM; in data set [4], 340 nM. Also, the AC50 in data set [3] came to 3.7 nM.

As for `Cc1ccc(C2SC[C@@H](C(=O)O)N2C(=O)[C@H](C)CS)o1` (some centres unmarked) [Compound 87], the IC50 came to 460 nM in data set [2] and 730 nM in data set [4]. Further, the AC50 in data set [3] was 2.6 nM.

For `C[C@H](CS)C(=O)N1C(c2cccs2)SC[C@H]1C(=O)O` (some centres unmarked) [Compound 91], the figures for the IC50 in data set [2] and in data set [4] were 700 nM and 370 nM, respectively. In addition, the AC50 in data set [3] was found to be 10 nM.

For the molecule `C[C@H](CS)C(=O)N1C(c2cccnc2)SC[C@H]1C(=O)O` (some centres unmarked) [Compound 93], the values for the IC50 in data set [2] and in data set [4] were 140 nM and 840 nM, respectively. For the same molecule, the concentration at half-maximal activity (AC50) in data set [3] was determined as 2.9 nM.

Turning to `C[C@H](CS)C(=O)N1C(c2ccncc2)SC[C@H]1C(=O)O` (some centres unmarked) [Compound 95], the IC50 turned out to be 83 nM in data set [2] and 110 nM in data set [4]. Moreover, in data set [3], the AC50 was 3.1 nM.

Turning to `C[C@H](CS)C(=O)N1CSC[C@H]1C(=O)O` [Compound 96, reference compound], the IC50 in data set [2] is 170 nM; in data set [4], 260 nM. The AC50 in data set [3] was 2.6 nM.
